Patent US20240269129A1, “GLYCOGEN SYNTHASE KINASE 3 (GSK3) INHIBITORS FOR TREATING CTNNB1 SYNDROME” (Trustees of Tufts College, priority 2021, published 2024)
Entries after “also recorded” stand apart in the source; their conditions may differ.

Assays:
GSK3α = GSK3α (Homo sapiens, UniProt P49840); experiment: GSK3α inhibition, motility-shift microfluidic assay (Caliper) at Km of ATP; format: biochemical
Method: FIG. 12. […] (a) General synthetic scheme for synthesis of the pyrazolo-tetrahydroquinolinone scaffold. (b) IC50 GSK3α and GSK3β values for inhibition were determined at Km of ATP in a motility-shift microfluidic assay (Caliper, MA) measuring phosphorylation of a synthetic substrate. Values are average of three or more experiments. Data are shown as IC50 values in μM±standard deviation. Compounds were tested in duplicate in a 12-point dose curve with 3-fold dilution starting at 33.3 μM. […] Each inhibitor was screened against 311 kinases at a 10 μM concentration.

[1] = system: β-catenin heterozygous mice; experiment: Contextual fear conditioning (learning) in β-catenin heterozygous mice; format: in vivo, mouse; conditions: 30 mg/kg doses, young adult βcatHet mice
Method: FIG. 2. […] Classic spatial learning task that pairs association of a particular context with a mild foot shock; freezing in the context is measured as an indicator of learning; n=26 control, 24 BcatHet; p<0.0001 Repeated Measure ANOVA; **p<0.01, ***p<0.001 multiple comparison t-test.
(§1) Drug treatments using small molecule GSK3α and GSK3β inhibitors were tested in vivo, for safe and effective amelioration of the phenotypes by assaying β-catenin protein levels, learning and motor skills effects of drug vs. vehicle on CTNNB1 heterozygote mice and control littermates. In an example, a study includes administering the small molecule GSK3 inhibitor in sequential daily doses to the βcatHet mice. The daily doses can be administered, for example, for five days, or four days, or any other number of days. At some time after the last dose, such as 1 hour, the grip strength test can be administered. Additionally, the contextual fear conditioning can be performed. Sometime later, such as 1 day later, the contextual fear conditioning tests can be performed.
(§2) Mice were administered 30 mg/kg doses of the respective compounds in the present Example. Samples of the brain and muscle from control mice, βcatHet mice (untreated), and βcatHet mice (treated) were tested for levels of β-catenin.

GSK3β = GSK3β (Homo sapiens, UniProt P49841); experiment: GSK3β inhibition, motility-shift microfluidic assay (Caliper) at Km of ATP; format: biochemical; conditions: for IC50: at Km of ATP
GSK3β, sequence (P49841 whole entry): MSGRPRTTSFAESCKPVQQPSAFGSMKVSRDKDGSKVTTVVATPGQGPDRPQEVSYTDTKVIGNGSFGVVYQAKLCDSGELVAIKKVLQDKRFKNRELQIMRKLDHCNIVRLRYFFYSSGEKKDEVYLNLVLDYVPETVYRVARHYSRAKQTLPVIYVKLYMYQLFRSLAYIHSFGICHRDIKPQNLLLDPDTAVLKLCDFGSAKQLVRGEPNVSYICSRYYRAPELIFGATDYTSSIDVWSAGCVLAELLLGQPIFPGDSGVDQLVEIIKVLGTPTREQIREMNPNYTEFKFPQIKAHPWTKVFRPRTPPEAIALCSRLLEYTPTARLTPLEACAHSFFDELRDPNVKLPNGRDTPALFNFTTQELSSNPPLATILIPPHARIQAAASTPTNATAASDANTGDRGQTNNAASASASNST
Method: FIG. 12. Design and characterization of first paralog selective inhibitors of GSK3α and GSK3β. (a) General synthetic scheme for synthesis of the pyrazolo-tetrahydroquinolinone scaffold. (b) IC50 GSK3α and GSK3β values for inhibition were determined at Km of ATP in a motility-shift microfluidic assay (Caliper, MA) measuring phosphorylation of a synthetic substrate. Values are average of three or more experiments. Data are shown as IC50 values in μM±standard deviation. Compounds were tested in duplicate in a 12-point dose curve with 3-fold dilution starting at 33.3 μM. […] Each inhibitor was screened against 311 kinases at a 10 μM concentration. Kinases with >50% inhibition are depicted (percentage inhibition proportional to size of red dot).
Structure-based design has been aimed towards maximizing steric requirement at the R position and the corresponding differences within the selectivity pockets of GSK3α and GSK3β. […] These modifications and increased binding affinities were tolerant of simple substitutions on the phenyl ring (cf. BRD0320).

[2] = system: β-catenin heterozygous mice; experiment: Muscle grip strength test in β-catenin heterozygous mice; format: in vivo, mouse; conditions: 30 mg/kg doses, young adult βcatHet mice
Method: as §1, §2

β-catenin protein levels = β-catenin protein levels in brain and skeletal muscle of treated β-catenin heterozygous mice, quantitative immunoblotting; format: in vivo, mouse; conditions: 30 mg/kg doses, young adult βcatHet mice
Method: as §1, §2

[3] = system: CTNNB1 heterozygous iPSCs; experiment: β-catenin and DKK1 protein levels in CTNNB1 heterozygous iPSCs, pilot dose-response, quantitative immunoblotting; format: cell-based, human
Excerpt: FIG. 14. FIG. 1. GSK3α,β inhibitors increase β-cat protein levels in (a) human CTNNB1 heterozygous glutamatergic neurons treated with BRD0320, relative to vehicle-treated het neurons, and (b) CTNNB1 het iPSCs treated with BRD0320 and LY2090314 at the indicated concentrations. Wnt target, DKK1 protein levels show similar increases to β-cat. Histograms showing comparison to (a) WT neuron levels set as 1 and (b) vehicle-treated het iPSC levels set as 1. LY2090314 increases β-cat protein levels at 10× lower concentration relative to BRD0320.
A human pluripotent stem cell line (iPSC) that lacks any pathogenic variants was made heterozygous for CTNNB1 via CRISPR-Cas9 gene editing of one allele. A premature termination (PTC+1) frameshift was introduced based on a CTNNB1 syndrome patient mutation. Haploinsufficiency was confirmed. The iPSCs were differentiated to cortical glutamatergic neurons by transfection with the transcription factor human neurogenin 2. […] As shown in FIG. 14 (a), beta-catenin protein levels were measured 24 hrs later by quantitative immunoblotting in the GSK3 inhibitor treated CTNNB1 heterozygous neurons, relative to vehicle-treated heterozygous neurons and wildtype neurons.
Beta-catenin protein levels were measured 24 hrs later by quantitative immunoblotting in the GSK3 inhibitor treated CTNNB1 heterozygous iPSCs, relative to vehicle-treated heterozygous iPSCs.

GSK3α, sequence (P49840 whole entry): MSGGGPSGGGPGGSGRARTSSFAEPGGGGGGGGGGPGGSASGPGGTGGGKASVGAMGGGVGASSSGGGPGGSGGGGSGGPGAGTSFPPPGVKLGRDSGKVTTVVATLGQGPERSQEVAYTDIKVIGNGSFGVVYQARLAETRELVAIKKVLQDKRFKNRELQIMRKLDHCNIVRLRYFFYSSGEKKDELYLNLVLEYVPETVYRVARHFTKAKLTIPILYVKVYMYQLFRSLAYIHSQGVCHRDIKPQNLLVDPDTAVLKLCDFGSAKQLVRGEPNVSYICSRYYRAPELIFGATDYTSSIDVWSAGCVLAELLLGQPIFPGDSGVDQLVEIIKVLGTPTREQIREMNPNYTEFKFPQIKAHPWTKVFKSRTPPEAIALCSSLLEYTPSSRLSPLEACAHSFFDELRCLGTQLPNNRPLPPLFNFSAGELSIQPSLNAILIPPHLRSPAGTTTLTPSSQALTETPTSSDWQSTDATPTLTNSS

SMILES	learning (contextual fear conditioning) [1]	IC50 (GSK3β)	muscle grip strength [2]	other results
CC1(C)CC(=O)C2=C(C1)Nc1n[nH]c(C3CC3)c1[C@]2(C)c1ccccc1 [BRD0209]	–	–	–	potency for the two paralogs GSK3α and GSK3β (GSK3α): Equipotency
CC[C@@]1(c2ccccc2)C2=C(CC(C)(C)CC2=O)Nc2[nH]ncc21 [BRD0705]	did not display a significant trend to improvements; also recorded: slight trend (not significant) toward improvements	515 nM	did not display a significant trend to improvements; also recorded: slight trend (not significant) toward improvements	–
CC(C)(C)Cc1[nH]nc2c1[C@](C)(c1ccccc1)C1=C(CC(C)(C)CC1=O)N2 [BRD3731]	slight significant improvement	15 nM	significant increase; also recorded: trend toward improvement	β-catenin protein levels in β-catenin heterozygous mouse brain and skeletal muscle relative to vehicle treated heterozygote (β-catenin protein levels): significantly increased; selectivity for GSK3β (GSK3β): 14 fold; IC50 (GSK3α; at Km of ATP): 215 nM
O=C1NC(=O)C(c2cnc3ccccn23)=C1c1cn2c3c(cc(F)cc13)CN(C(=O)N1CCCCC1)CC2 [LY2090314, 3-(9-fluoro-2-(piperidine-1-carbonyl)-1,2,3,4-tetrahydro-[1,4]diazepino[6,7,1-hi]indol-7-yl)-4-(imidazo[1,2-a]pyridin-3-yl)-1H-pyrrole-2,5-dione]	–	–	–	β-cat protein levels in CTNNB1 het iPSCs relative to vehicle-treated het iPSCs ([3]; BRD0320 10 μM, 30 μM, LY2090314 0.1 μM, 0.3 μM, 24 hrs): increase; concentration that increases β-cat protein levels, relative to BRD0320 ([3]; CTNNB1 het iPSCs): 10 × lower
